This note sets out measurements from patent publication US8980259B2, “Combination therapy” (Novartis AG, priority 2012, dated 2015).

The test system of assay [1] is MCF7 xenograft. Briefly: MCF7 xenograft in mice, tumor volume. It is filed as in vivo. Here is the method:
MCF-7 cells (purchased from American Type Culture Collection (ATCC)) were tested free of mycoplasma and viral contamination in the IMPACT VIII PCR assay panel (RADIL, MU Research Animal Diagnostic Laboratory, Columbia, Mo.). MCF-7 cells were cultured in EMEM medium (ATCC#30-2003) containing 10% heat-inactivated fetal bovine serum. Mice were implanted with 17b-estradiol pellets, 0.18 mg/pellet, 90-day release (Innovative research of America Catalog #NE-121), between the shoulder blades three days before the cell implant.
Treatment started on day 21 and concluded by day 59. Tumor volume of each group was measured. The effect of COMPOUND A and ANTIBODY A, as monotherapy and combination, was assessed by comparing: • (a) the percent change between Day 1 and endpoint day in the mean tumor volume of the treated group (T) and the control group (C) (herein referred to as “T/C”), and • (b) the percent change between Day 1 and the endpoint day in the mean tumor volume of the treated group compared to its initial volume (herein referred to as “T/T0”).

The test system of assay [2] is MCF7 human breast carcinoma cells. The assay is described as follows: Cell viability / proliferation assay (CELLTITER-GLO, dose matrix) in MCF7 cells. It is filed as cell-based. Here is the method:
FIG. 1 is a series of graphs showing the effect of the combination of COMPOUND A with ANTIBODY A on MCF7 cell proliferation under the presence of IGF-1 (100 ng/ml). Briefly, MCF7 cells were treated in 384-well format for 5 days with COMPOUND A and ANTIBODY A in the presence of 100 ng/ml of IGF1 in SD medium. […] Each data point represents averaged data from 3 wells+standard deviation, and the color spectrum also represents the level of the inhibition. A red rectangle highlights the region where the combination is more efficacious than the single agents the same dose.
COMPOUND A (10 mM), stored in aliquots at −20° C. ANTIBODY A (0.2 mM in 1% BSA), stored in aliquots at 4° C. […]
Cell viability was determined by measuring cellular ATP content using the CELLTITER-GLO (CTG) luminescent cell viability assay (Promega). […] An equal volume of the CTG reagents was added to each well at the end of the compound treatment and luminescence was recorded on an ENVISION plate reader (Perkin Elmer). Reduced and enhanched luminescent signal values (responses) were calculated relative to untreated (control) cells. […]
The synergistic interaction (analyzed using Chalice software [CombinatoRx, Cambridge Mass.]) was calculated by comparing the response from a combination to the response of the agent acting alone, against the drug-with-itself dose-additive reference model. […]
In general terms: Cellular ATP, detected with luciferase, serves as a proxy for viable cell number.

On to `Cc1nc(NC(=O)N2CCC[C@H]2C(N)=O)sc1-c1ccnc(C(C)(C)C(F)(F)F)c1` [COMPOUND A, (S)-Pyrrolidine-1,2-dicarboxylic acid 2-amide 1-({4-methyl-5-[2-(2,2,2-trifluoro-1,1-dimethyl-ethyl)-pyridin-4-yl]-thiazol-2-yl}-amide)], for which the “tumor outcome in MCF7 xenograft (summary in words)” value in assay [1] (MCF7 xenograft in mice, Experiment 2 summary) was “tumor stasis”. Moreover, in assay [1] (MCF7 xenograft mice, COMPOUND A 30 mg/kg qd po, ANTIBODY A 12 mg/kg q2w ip, treatment day 21 to day 59), the “T/C (percent change in mean tumor volume, treated vs control group)” value is given as 10%. Also, the “MCF7 growth inhibition in vitro (summary in words)” value in assay [2] (MCF7, Experiment 1 summary) was “concentration-dependent tumor growth inhibition”. The “anti-proliferative activity (in words)” value in assay [2] (MCF7, single agent, either in the presence or absence of IGF1) is “concentration dependent anti-proliferative activity”.
